Experimental data from US20060251717A1, “Memantine Oral Dosage Forms” (priority 2003, published 2006).

Test: Administration of memantine in 2 mg weekly increments to a patient suffering from glaucoma, tolerance observed
Format: in vivo
Details: 2 mg tablet for one week
Experimental: In certain cases, the initial administration of 5 mg of memantine, or the increase in the dosage by 5 mg increments, may be more than can be tolerated by the patient. […] The term adverse event refers to any undesirable side effect or toxic effect associated with memantine. In relation to embodiments of this type, it is preferable that the dose of memantine is increase by an increment of about 0.25 to about 0.5 mg each day until the maintenance dose is reached.
(§1) To a patient suffering from glaucoma, is administered a tablet comprising 2 mg of memantine is administered for one week. The patient then receives a tablet comprising a 4 mg dose for one week. The dose is increased by 2 mg each week until a 10 mg dose is reached at the beginning of the fifth week. […] The tablet comprising 10 mg of memantine is administered daily for as long as the drug is needed.
as §1, with “20” for “10”, “tenth” for “fifth”

CC12CC3CC(C)(C1)CC(N)(C3)C2 [memantine]
tolerance of the drug (dose increased by 2 mg each week until 10 mg at beginning of fifth week, first four weeks of administration): improved tolerance | tolerance of the drug (dose increased by 2 mg each week until 20 mg at beginning of tenth week, first nine weeks of administration): improved tolerance
